“Also recorded” adds a separate entry of the source.
What was measured:
[1] = tested on: patient with ADCY5-related dyskinesia
Description: The patient is a child with the disorder. Pregnancy, birth and first acquisitions were unremarkable. They developed diurnal and nocturnal episodes of hyperkinetic involuntary movements involving the face and upper limbs, lasting from a few seconds to ten minutes. There was a clear kinesigenic trigger for some of the episodes, others were exercise-induced, and a few were spontaneous. In addition, they were described as clumsy, and had difficulties in various activities of daily living such as fine motor tasks or riding a bike. Frequency of the episodes was around 30 per day, causing significant disruption of activities. […] Interictal neurological examination was normal except for some fleeting choreodystonic movements. Because of the co-occurrence of several types of paroxysmal dyskinesia, the patient was first tested for mutations in the SLC2A1 and ADCY5 genes. Genetic analysis was negative for SLC2A1 but found a mosaic heterozygous mutation in the ADCY5 gene (c.2088+1G>A), previously reported as pathogenic (Carapito et al., A de novo ADCY5 mutation causes early-onset autosomal dominant chorea and dystonia. Mov Disord. 2015; 30(3):423-7).
Caffeine was the first treatment tried.

[2] = tested on: patients with ADCY5-related dyskinesia; assay: Seven patients treated with caffeine; dyskinesia episodes and self-rated improvement; assay type: in vivo, human; details: 150 to 800 mg of caffeine per day, all cases
Description: Currently, seven patients are treated with caffeine with similar results with uptakes varying from 150 to 800 mg of caffeine per day. […] Four of them were asked to rate the improvement brought by caffeine on their involuntary movements, on a scale of 0 (no improvement) to 100% (major improvement with total disappearance of symptoms). All four reported an improvement of 80 to 100%.

A2AR knockout mice = details: cited from earlier work

Cn1c(=O)c2c(ncn2C)n(C)c1=O [caffeine, 1,3,7-trimethylxanthine]
effect of resuming caffeine intake after four days of decaffeinated coffee ([1]; after unknowing switch to decaffeinated coffee with reversal to baseline): immediately restored the improvement | effect on diurnal and nocturnal episodes of dyskinesia ([1]; espresso in the morning, second espresso in the afternoon, half an espresso at bedtime, baseline around 30 episodes per day): next to complete resolution; also recorded: near-complete resolution | remaining short and non-disruptive episodes during the day ([1]; espresso morning, afternoon and half at bedtime, baseline around 30 episodes per day): at most one or two | start of dramatic response after intake ([1]; one espresso in the morning, approximately 100 mg of caffeine, child, c.2088+1G>A ADCY5 mutation): 45 min | effect on dyskinesia episodes [2]: reduction or a suppression of dyskinesia episodes | wake-promoting effect (A2AR knockout mice): abolished
